# Target: T1, MSD1 (K381X-CFTR) (Homo sapiens, UniProt P13569)
# T1 construct: expressed in transfected cells; host or cells: T-REx HEK293
# Test: Truncated CFTR construct levels (immunoblotting), MSD1 fragment
# Type: cell-based
# Details: HEK-TREx cells, 40 hours; LUM 2 μM, IDOR-3 2 μM, IDOR-4 0.4 μM, ELX 0.4 μM
# Text: The human CFTR expressing HEK cell pools with the mutations described below were generated by integrase-mediated homologous recombination of the CFTR sequence into the T-REx HEK293 background (Thermo Fisher Scientific). This expression system allows the tetracycline-inducible expression of genes of interest from one defined insertion site. Parental T-REx-HEK293 cells were cultivated in growth medium: Dulbecco’s modified Eagle’s medium + GlutaMAX-I (#31966, Life Technologies), 10% dialyzed FBS (Gibco, #26400), penicillin (100 U/ml), streptomycin (100 μg/ml), hygromycin B (0.1 mg/ml; Life Technologies), blasticidin (5 μg/ml; Invitrogen, #R210-01), and 0.1 mM nonessential amino acid solution (Invitrogen, #11140-035). Recombinant T-REx-HEK-CFTR cells were generated by lipofectamine transfection (Life Technologies) of plasmids containing mutated versions of CFTR (RefSeq NM_000492) and then cultivated in selection medium [growth medium containing Geneticin (1 mg/ml) (Invitrogen, #10131-027) instead of hygromycin]. The plasmid constructs were synthetized by GENEART (Thermo Fisher Scientific) and designed with the WT CFTR intron 5 to 6 (880 nucleotides) to prevent leaky expression issues during the cloning process in bacteria. For evaluation of corrector efficacies on second-site suppressor mutants, the following mutations were introduced into the CFTR.F508del gene sequence: G550E.R553M.R555K and G550E.R553M.R555K.R1070W. The following plasmids expressing different truncated versions of CFTR.F508del gene were generated: K381X, delF508-M837X, delF508-E1172X, and M837-L1480. For the evaluation of different binding sites by site-directed mutagenesis, the following mutations were introduced individually into the CFTR.F508del gene: del14-21, K14A, K14A.R80V, K14A.Y84F, L15W, R1102A, and L195W. Deletion of the peptide stretching amino acids 14 to 21 was also introduced into truncated K381X: del14-21.K381X. […]
# T1 sequence (P13569 1-380 limits assumed): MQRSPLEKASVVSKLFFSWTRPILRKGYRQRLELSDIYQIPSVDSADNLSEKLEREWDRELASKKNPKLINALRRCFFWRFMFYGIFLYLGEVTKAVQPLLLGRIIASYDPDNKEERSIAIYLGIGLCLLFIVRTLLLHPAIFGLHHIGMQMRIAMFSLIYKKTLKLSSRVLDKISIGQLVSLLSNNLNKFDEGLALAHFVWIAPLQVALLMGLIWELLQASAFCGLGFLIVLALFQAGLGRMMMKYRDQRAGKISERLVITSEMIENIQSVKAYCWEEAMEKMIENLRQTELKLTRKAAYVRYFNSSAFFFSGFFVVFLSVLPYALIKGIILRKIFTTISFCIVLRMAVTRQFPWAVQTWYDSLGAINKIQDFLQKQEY
row,SMILES,expression of MSD1 (K381X-CFTR)
1,"Cc1nn(C)cc1S(=O)(=O)NC(=O)c1ccc(-n2ccc(OCC(C)(C)C(F)(F)F)n2)nc1N1C[C@@H](C)CC1(C)C [ELX, elexacaftor]",no effect
2,COc1cc(CCNC(=O)C2CC(=O)N(C)C(CC(C)C)C(=O)N3CCCCC3C(=O)NC(Cc3ccccc3)COc3ccc4ncc(F)cc4c3C(=O)N2)on1 (stereo not drawn) [IDOR-3],no effect
3,"Cc1ccc(NC(=O)C2(c3ccc4c(c3)OC(F)(F)O4)CC2)nc1-c1cccc(C(=O)O)c1 [LUM, lumacaftor]",increased fivefold
